Results taken from the NIST ThermoML archive (doi:10.1016/j.fluid.2010.10.005).
± gives the expanded uncertainty stated by the source.

Assay: xn = mol fraction of the nth substance listed
Conditions: 623.15 K, Liquid, Vibrating tube method

CO [methanol] + O
Conditions	mass density [kg/m3]
20000 kPa, x1 = 0.04	554.98 ± 25
20000 kPa, x1 = 0.09	499.06 ± 19
20000 kPa, x1 = 0.15	466.53 ± 22
20000 kPa, x1 = 0.18	408.88 ± 62
20000 kPa, x1 = 0.2	310.04 ± 46
20000 kPa, x1 = 0.25	240.45 ± 19
20000 kPa, x1 = 0.38	198.52 ± 14
20000 kPa, x1 = 0.57	192.93 ± 12
20000 kPa, x1 = 0.59	193.68 ± 12
20000 kPa, x1 = 0.73	195.58 ± 11
20000 kPa, x1 = 0.9	203.5 ± 11
20000 kPa, x1 = 0.95	203.61 ± 11
25000 kPa, x1 = 0.06	592.54 ± 13
25000 kPa, x1 = 0.1	564.26 ± 100
25000 kPa, x1 = 0.19	481.28 ± 22
25000 kPa, x1 = 0.29	388.57 ± 21
25000 kPa, x1 = 0.38	335.66 ± 14
25000 kPa, x1 = 0.55	284.19 ± 13
25000 kPa, x1 = 0.8	268.34 ± 12
30000 kPa, x1 = 0.07	599.12 ± 24
30000 kPa, x1 = 0.09	578.83 ± 15
30000 kPa, x1 = 0.12	569.12 ± 14
30000 kPa, x1 = 0.19	536.54 ± 14
30000 kPa, x1 = 0.47	401.25 ± 14
30000 kPa, x1 = 0.54	383.13 ± 26
30000 kPa, x1 = 0.76	350.39 ± 12
35000 kPa, x1 = 0.09	603.89 ± 15
35000 kPa, x1 = 0.18	552.55 ± 13
35000 kPa, x1 = 0.38	476.16 ± 13
35000 kPa, x1 = 0.48	449.31 ± 12
35000 kPa, x1 = 0.55	432.87 ± 12
35000 kPa, x1 = 0.63	422.11 ± 11
35000 kPa, x1 = 0.77	406.97 ± 11
35000 kPa, x1 = 0.87	397.04 ± 11
